Source: patent US20110143948A1, “MOLECULAR SIGNATURES AND BIOMARKERS ASSOCIATED WITH MELANOMA AND METHODS OF USE THEREOF” (priority 2008, published 2011)

System: ncRNAs (SEQ ID NO 28-89)
Assay: ncRNA arrays of melanocytes, keratinocytes, normal skin, melanoma cell lines and patient samples
Parameters: species or system human
Conditions: for ncRNA array expression, patient 2: melanoma patient 2 sample compared to normal skin; for ncRNA array expression, patient 3: melanoma patient 3 sample compared to normal skin; for ncRNA array expression, patient 4: melanoma patient 4 sample compared to normal skin; for ncRNA array expression, patient 5: melanoma patient 5 sample compared to normal skin; for ncRNA array expression, patient 6: melanoma patient 6 sample compared to normal skin; for ncRNA array expression, patient 7: melanoma patient 7 sample compared to normal skin; for ncRNA array expression, patient 8: melanoma patient 8 sample compared to normal skin; for ncRNA array expression, patient 9: melanoma patient 9 sample compared to normal skin; for ncRNA array expression, patient 10: melanoma patient 10 sample compared to normal skin; for ncRNA array expression, patient 19: melanoma patient 19 sample compared to normal skin; for ncRNA array expression, patient 20: melanoma patient 20 sample compared to normal skin; for ncRNA array expression, patient 21: melanoma patient 21 sample compared to normal skin; for ncRNA array expression, patient 22: melanoma patient 22 sample compared to normal skin; for ncRNA array expression, patient 23: melanoma patient 23 sample compared to normal skin; for ncRNA array expression, patient 24: melanoma patient 24 sample compared to normal skin; for ncRNA array expression, patient 25: melanoma patient 25 sample compared to normal skin; for ncRNA array expression, patient 26: melanoma patient 26 sample compared to normal skin; for ncRNA array expression, patient 27: melanoma patient 27 sample compared to normal skin; for ncRNA array expression, patient 28: melanoma patient 28 sample compared to normal skin; for ncRNA array expression, patient 29: melanoma patient 29 sample compared to normal skin; for ncRNA array expression, patient 30: melanoma patient 30 sample compared to normal skin
Protocol: An ncRNA array platform that contains over 10,000 putative (>200 nt) ncRNAs including most of the known ncRNAs in mouse and human was conducted to evaluate ncRNAs within melanoma. Lack of coding potential was estimated by an algorithm that scores various characteristics of protein-coding genes, including open reading frame length, synonymous/non-synonymous base substitution rates and similarity to known proteins. These arrays provide the first generation of tools designed to analyze the dynamic expression of a large subset of ncRNAs in human and mouse and to identify candidate genes for more detailed functional analysis. In addition to the ncRNA content, probes targeting mRNA content from RefSeq are also included, allowing discovery of coordinated expression with associated protein-coding genes. The result of these assays is a list of ncRNA genes (i.e. SEQ ID NO 28-89) and maps of their sequence boundaries. We have profiled total RNA isolated from melanocytes, keratinocytes, normal human skin, melanoma cell lines and melanoma patient samples to identify differentially expressed ncRNAs in cell lines and tissues. ncRNAs expression in all tested samples were compared to either melanocytes or normal skin. We have identified a group of ncRNAs that are specific for (a) melanocytes (b) Keratinocytes (c) Melanoma cell lines (d) Melanoma patients. […] Probe DNA sequences for this array include: AF086032 (SEQ ID NO 107) […] BC071821 (SEQ ID NO 108) […] C AK130193 (SEQ ID NO 109) […] AL109719 (SEQ ID NO 110) […] AF085888 (SEQ ID NO 111) […] T BC033879 (SEQ ID NO 112) […] AA AK024556 (SEQ ID NO 113) […] Probe nomenclature is standard genebank IDs given by NCBI and other organizations.
Keratinocytes specific signatures were subtracted and resultant ncRNAs were validated by qRT-PCR and Northern blots. Results point out the presence of a group of melanoma specific ncRNAs (i.e. SEQ ID NO 28-89).

Substance | ncRNA array expression, patient 2 | ncRNA array expression, patient 3 | ncRNA array expression, patient 4 | ncRNA array expression, patient 5 | ncRNA array expression, patient 6 | ncRNA array expression, patient 7 | ncRNA array expression, patient 8 | ncRNA array expression, patient 9 | ncRNA array expression, patient 10 | ncRNA array expression, patient 19 | ncRNA array expression, patient 20 | ncRNA array expression, patient 21 | ncRNA array expression, patient 22 | ncRNA array expression, patient 23 | ncRNA array expression, patient 24 | ncRNA array expression, patient 25 | ncRNA array expression, patient 26 | ncRNA array expression, patient 27 | ncRNA array expression, patient 28 | ncRNA array expression, patient 29 | other results
SEQ ID NO 41 (CTCGTAACACTGGGAAAACTGCATACAATATTTAGAAGGAACACTAATACAGCAGAATCT; listed as DNA, chemistry not given here; listed as Homo sapiens) | −2.529 | −2.702 | −2.655 | −2.566 | −2.676 | −2.596 | −2.699 | −2.456 | −2.262 | −0.5732 | −2.545 | −2.574 | −2.212 | −1.1449 | −2.6637 | −2.4383 | −2.458 | −2.204 | −2.5405 | −2.614 | ncRNA array expression, patient 30: 0.7101
SEQ ID NO 42 (TAGACATAGGTTAGAGGGGGAACAGTGCTTAAAATTCCATGGAACTAAGATTTTTTTTAT; listed as DNA, chemistry not given here; listed as Homo sapiens) | −1.5031 | −1.941 | −1.837 | −1.916 | −1.445 | −1.996 | −2.073 | −1.562 | −0.8067 | −2.231 | −1.775 | −1.59 | −1.26 | −0.1085 | −1.66 | −1.5976 | −1.684 | −1.038 | −1.339 | −0.5812 | ncRNA array expression, patient 30: 1.333
SEQ ID NO 43 (CTTAATCCACATTTGTTTTGAATTTTTCTGATTCCTATAGTACCATACTCTGATGCCTAT; listed as DNA, chemistry not given here; listed as Homo sapiens) | −1.3 | −1.272 | −1.462 | −1.269 | −1.488 | −1.541 | −1.511 | −1.226 | −1.371 | −1.531 | −1.239 | −1.321 | −1.451 | −1.442 | −1.2517 | −1.544 | −1.396 | −1.339 | −1.387 | −1.366 | ncRNA array expression, patient 30: −0.1449
